# ChEMBL document CHEMBL5346927, “Discovery of a novel 1H-pyrazole- [3,4-b] pyridine-based lysine demethylase 5B inhibitor with potential anti-prostate cancer activity that perturbs the phosphoinositide 3-kinase/AKT pathway” (Eur J Med Chem, 2023)
# pIC50: −log10 of the molar value. Calls of active or inactive are those of the source. The rule behind the calls is not given here.
# Key:
# [1] = Apparent volume of distribution in ICR mouse at 5 mg/kg, iv measured at 0.083 to 24 hrs by LC-MS analysis; type: ADME, organism-based; details: in vivo, time 0.083-24 hrs
# [2] = Toxicity in BALB/C nude mouse xenografted with human PC-3 cells assessed as lung damage at 25 to 50 mg/kg, IG administered for 25 days by H&E staining based analysis; type: organism-based; details: in vivo, po, 600 h, dose 25-50 mg/kg, time 25 day
# [3] = Tmax in ICR mouse at 25 mg/kg, IG measured at 0.083 to 24 hrs by LC-MS analysis; type: ADME, organism-based; details: in vivo, po, time 0.083-24 hrs
# [4] = molecular target: T1, Lysine-specific demethylase 5B (Homo sapiens, UniProt Q9UGL1); assay: Inhibition of KDM5B (unknown origin)
# T1 sequence (Q9UGL1 whole entry): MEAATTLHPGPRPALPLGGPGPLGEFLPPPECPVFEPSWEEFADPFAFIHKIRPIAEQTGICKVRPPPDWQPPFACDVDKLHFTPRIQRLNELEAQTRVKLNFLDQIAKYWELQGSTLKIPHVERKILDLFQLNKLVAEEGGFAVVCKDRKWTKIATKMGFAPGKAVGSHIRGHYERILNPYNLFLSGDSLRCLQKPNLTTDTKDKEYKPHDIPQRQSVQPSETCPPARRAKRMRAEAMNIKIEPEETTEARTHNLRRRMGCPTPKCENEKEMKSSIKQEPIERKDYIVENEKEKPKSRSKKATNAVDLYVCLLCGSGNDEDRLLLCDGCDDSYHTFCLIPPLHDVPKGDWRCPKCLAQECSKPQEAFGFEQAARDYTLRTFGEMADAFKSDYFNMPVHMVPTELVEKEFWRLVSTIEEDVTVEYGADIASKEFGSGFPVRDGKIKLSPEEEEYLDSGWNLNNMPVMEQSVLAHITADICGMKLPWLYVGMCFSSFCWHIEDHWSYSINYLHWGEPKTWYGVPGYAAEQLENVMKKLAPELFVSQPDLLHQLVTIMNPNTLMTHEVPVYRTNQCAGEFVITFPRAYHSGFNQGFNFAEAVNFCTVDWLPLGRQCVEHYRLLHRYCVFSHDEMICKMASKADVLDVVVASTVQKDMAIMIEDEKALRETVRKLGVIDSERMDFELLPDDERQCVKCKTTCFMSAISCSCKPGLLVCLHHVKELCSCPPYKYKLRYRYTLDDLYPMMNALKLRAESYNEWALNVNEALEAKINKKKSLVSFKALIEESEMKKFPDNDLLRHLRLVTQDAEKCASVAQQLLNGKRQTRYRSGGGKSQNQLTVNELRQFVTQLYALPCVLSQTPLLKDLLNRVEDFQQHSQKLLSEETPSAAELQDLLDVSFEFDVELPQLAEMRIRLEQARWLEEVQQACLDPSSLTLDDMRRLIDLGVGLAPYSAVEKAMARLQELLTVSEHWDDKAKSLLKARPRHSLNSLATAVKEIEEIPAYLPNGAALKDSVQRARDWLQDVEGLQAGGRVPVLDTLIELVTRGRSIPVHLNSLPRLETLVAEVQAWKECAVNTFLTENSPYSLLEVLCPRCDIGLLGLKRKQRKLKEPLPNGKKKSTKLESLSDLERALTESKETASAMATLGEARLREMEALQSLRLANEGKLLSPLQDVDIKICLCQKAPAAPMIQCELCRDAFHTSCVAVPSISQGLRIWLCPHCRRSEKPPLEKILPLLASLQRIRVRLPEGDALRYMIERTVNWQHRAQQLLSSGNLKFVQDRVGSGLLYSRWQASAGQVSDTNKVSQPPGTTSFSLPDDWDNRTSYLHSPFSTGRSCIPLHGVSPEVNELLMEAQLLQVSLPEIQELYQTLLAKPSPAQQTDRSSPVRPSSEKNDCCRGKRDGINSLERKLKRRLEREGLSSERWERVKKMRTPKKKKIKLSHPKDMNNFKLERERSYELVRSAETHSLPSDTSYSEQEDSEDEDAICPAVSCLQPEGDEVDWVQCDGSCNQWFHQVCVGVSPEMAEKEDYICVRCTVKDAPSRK
# MCF7 = assay: Antitumor activity against human MCF7 cells assessed as inhibition of cell proliferation incubated for 72 hrs by MTT assay; type: functional, cell-based; details: MCF7, 72 h
# PC-3 [5] = assay: Inhibition of PI3K/AKT pathway in human PC-3 cells assessed as decrease in P110alpha level at 10 uM by Western blot analysis; type: cell-based
# PC-3 [6] = assay: Induction of apoptosis in human PC-3 cells assessed as necrotic cells at 2.5 uM incubated for 72 hrs by Annexin V-FITC/PI staining based flow cytometric analysis (reference value: 5.01%); type: functional
# LNCaP [7] = assay: Antiproliferative activity against human LNCaP cells assessed as inhibition of cell proliferation incubated for 72 hrs by MTT assay; type: functional, cell-based
# PC-3 [8] = assay: Induction of apoptosis in human PC-3 cells assessed as late apoptotic cells at 10 uM incubated for 72 hrs by Annexin V-FITC/PI staining based flow cytometric analysis (reference value: 1.05%); type: functional
# [9] = Clearance in ICR mouse at 5 mg/kg, iv measured at 0.083 to 24 hrs by LC-MS analysis; type: ADME, organism-based; details: in vivo, time 0.083-24 hrs
# [10] = Tmax in ICR mouse at 5 mg/kg, iv measured at 0.083 to 24 hrs by LC-MS analysis; type: ADME, organism-based; details: in vivo, time 0.083-24 hrs
# DU-145 = assay: Antiproliferative activity against human DU-145 cells assessed as inhibition of cell proliferation incubated for 72 hrs by MTT assay; type: functional, cell-based; details: DU-145, 72 h
# [11] = molecular target: T1, Lysine-specific demethylase 5B; assay: Inhibition of KDM5B (unknown origin) at 10 uM relative to control
# [12] = Acute toxicity in Kunming mouse assessed as effect on kidney at 2 g/Kg, IG measured after 2 weeks by H&E staining based analysis; type: tissue-based; details: in vivo, po, 2000 mg/kg, 336 h
# PC-3 [13] = assay: Inhibition of PI3K/AKT pathway in human PC-3 cells assessed as decrease in AKT phosphorylation at Ser473 residue at 20 uM by Western blot analysis relative to control; type: cell-based
# PC-3 [14] = assay: Induction of cell cycle arrest in human PC-3 cells assessed as increase in G2/M phase cell ratio at 10 uM incubated for 24 hrs by PI/RNase A staining based flow cytometric analysis (reference value: 16.07%); type: functional
# PC-3 [15] = assay: Induction of apoptosis in human PC-3 cells assessed as late apoptotic cells at 5 uM incubated for 72 hrs by Annexin V-FITC/PI staining based flow cytometric analysis (reference value: 1.05%); type: functional
# PC-3 [16] = assay: Inhibition of PI3K/AKT pathway in human PC-3 cells assessed as decrease in AKT phosphorylation at Ser473 residue at 2.5 to 10 uM by Western blot analysis; type: cell-based; details: dose 2.5-10 µM
# [17] = Toxicity in BALB/C nude mouse xenografted with human PC-3 cells assessed as kidney damage at 25 to 50 mg/kg, IG administered for 25 days by H&E staining based analysis; type: organism-based; details: in vivo, po, 600 h, dose 25-50 mg/kg, time 25 day
# PC-3 [18] = assay: Antitumor activity against human PC-3 cells xenografted in BALB/C nude mice assessed as decrease in tumor volume at 25 to 50 mg/kg, IG administered for 25 days; type: functional, organism-based; details: dose 25-50 mg/kg, time 25.0 day
# [19] = Acute toxicity in Kunming mouse assessed as prostate gland damage at 2 g/Kg, IG measured after 2 weeks by H&E staining based analysis; type: tissue-based; details: in vivo, po, 2000 mg/kg, 336 h
# [20] = molecular target: T1, Lysine-specific demethylase 5B; assay: Inhibition of KDM5B in human PC-3 cells assessed as H3K4me2 accumulation incubated for 72 hrs by Western blot analysis; type: cell-based
# PC-3 [21] = assay: Induction of apoptosis in human PC-3 cells assessed as necrotic cells at 10 uM incubated for 72 hrs by Annexin V-FITC/PI staining based flow cytometric analysis (reference value: 5.01%); type: functional
# LNCaP [22] = assay: Induction of cell cycle arrest in human LNCaP cells assessed as accumulation of cells at G2/M phase at 5 micromol/L incubated for 48 hrs by PI/RNaseA staining based flow cytometric analysis; type: functional; details: dose 5.0 µmol/L
# [23] = Acute toxicity in Kunming mouse assessed as effect on spleen at 2 g/Kg, IG measured after 2 weeks by H&E staining based analysis; type: tissue-based; details: in vivo, po, 2000 mg/kg, 336 h
# [24] = Cytotoxicity against human WPMY-1 cells incubated for 72 hrs by MTT assay; type: toxicity, cell-based
# PC-3 [25] = assay: Inhibition of PI3K/AKT pathway in human PC-3 cells assessed as decrease in P85 level at 2.5 to 5 uM by Western blot analysis; type: cell-based; details: dose 2.5-5 µM
# PC-3 [26] = assay: Inhibition of PI3K/AKT pathway in human PC-3 cells assessed as decrease in AKT phosphorylation at Thr308 residue at 20 uM by Western blot analysis relative to control; type: cell-based
# PC-3 [27] = assay: Antitumor activity against human PC-3 cells assessed as inhibition of cell proliferation incubated for 72 hrs by MTT assay; type: functional, cell-based; details: PC-3, 72 h
# [28] = Oral bioavailability in ICR mouse at 25 mg/kg measured at 0.083 to 24 hrs by LC-MS analysis; type: ADME, organism-based; details: in vivo, time 0.083-24 hrs
# [29] = Acute toxicity in Kunming mouse assessed as effect on heart at 2 g/Kg, IG measured after 2 weeks by H&E staining based analysis; type: tissue-based; details: in vivo, po, 2000 mg/kg, 336 h
# PC-3 [30] = assay: Antitumor activity against human PC-3 cells xenografted in BALB/C nude mice assessed as decrease in tumor weight at 25 to 50 mg/kg, IG administered for 25 days; type: functional, organism-based; details: dose 25-50 mg/kg, time 25.0 day
# [31] = Acute toxicity in Kunming mouse assessed as effect on behavioral abnormalities at 2 g/Kg, IG measured after 2 weeks; details: in vivo, po, 2000 mg/kg, 336 h
# [32] = Acute toxicity in Kunming mouse assessed as effect on liver at 2 g/Kg, IG measured after 2 weeks by H&E staining based analysis; type: tissue-based; details: in vivo, po, 2000 mg/kg, 336 h
# PC-3 [33] = assay: Inhibition of PI3K/AKT pathway in human PC-3 cells assessed as decrease in P85 level at 10 to 20 uM by Western blot analysis; type: cell-based; details: dose 10-20 µM
# [34] = AUC (0 to t) in ICR mouse at 5 mg/kg, iv measured at 0.083 to 24 hrs by LC-MS analysis; type: ADME, organism-based; set-up: time lower 0.083 hrs, dose 5 mg/kg, time upper 24 hrs, route iv; details: in vivo
# [35] = MRT (0 to t) in ICR mouse at 5 mg/kg, iv measured at 0.083 to 24 hrs by LC-MS analysis; type: ADME, organism-based; details: in vivo, time 0.083-24 hrs
# [36] = Toxicity in BALB/C nude mouse xenografted with human PC-3 cells assessed as prostate gland damage at 25 to 50 mg/kg, IG administered for 25 days by H&E staining based analysis; type: organism-based; details: in vivo, po, 600 h, dose 25-50 mg/kg, time 25 day
# [37] = Acute toxicity in Kunming mouse assessed as effect on weight at 2 g/Kg, IG measured after 2 weeks; details: in vivo, po, 2000 mg/kg, 336 h
compound,measurement,setting,value
CN1CCN(CCNC(=O)c2cc(-c3ccc4ccccc4c3)nc3c2cnn3-c2ccccc2)CC1,Vz,[1],19.51 L/kg
same,Activity,[2],Non-Toxic
same,Tmax,[3],6 h
same,pIC50,[4],7.60
same,pIC50,MCF7,5.17
same,inhibition,PC-3 [5],Active
same,Activity,PC-3 [6],18.36%
same,pIC50,LNCaP [7],5.36
same,Activity,PC-3 [8],16.39%
same,CL,[9],8.17 mL/min/kg
same,Tmax,[10],4.98 min
same,pIC50,DU-145,5.02
same,inhibition,[11],102%
same,Activity,[12],Non-Toxic
same,inhibition,PC-3 [13],40%
same,Activity,PC-3 [14],75.33%
same,Activity,PC-3 [15],7.54%
same,inhibition,PC-3 [16],inactive
same,Activity,[17],Non-Toxic
same,Activity,PC-3 [18],Active
same,Activity,[19],Non-Toxic
same,inhibition,[20],Dose-Dependent Effect
same,Activity,PC-3 [21],23.96%
same,Activity,LNCaP [22],inactive
same,Activity,[23],Non-Toxic
same,IC50 at 72 h,[24],27.9 µM
same,inhibition,PC-3 [25],inactive
same,inhibition,PC-3 [26],60%
same,pIC50,PC-3 [27],5.66
same,F,[28],20.28%
same,Activity,[29],Non-Toxic
same,Activity,PC-3 [30],Active
same,Activity,[31],Non-Toxic
same,Activity,[32],Non-Toxic
same,inhibition,PC-3 [33],Active
same,AUCt,[34],44437.67 ng·h/mL
same,MRT(t),[35],10.29 h
same,Activity,[36],Non-Toxic
same,Activity,[37],Non-Toxic
